According to patent publication US7157408B2, “Quinoline fungicides” (Valent BioSciences Corporation, priority 2004, dated 2007):

Assays:
[1] = test system: Botrytis cinerea; test: Contact evaluation (microtiter plate); assay type: cell-based
Protocol: (§1) Compound solution: Contact evaluations were conducted to determine the anti-fungal activity of each compound against Botrytis cinerea, Sclerotinia sclerotiorum, Pythium aphanidermatum, Rhizoctonia solani, Cercospora arachidicola, Mycosphaerella fjiensis, and Monilinia laxa. Five milligrams of each compound were dissolved in 0.5 milliliter of DMSO for a compound stock solution of 1.0% w/v. Compound stock solutions were serial diluted with DMSO to 20, 10, and 2 ppm final well concentration. Fungi preparation: Botrytis cinerea spores were taken from 6-week-old cultures grown at 22C on full strength potato dextrous agar (PDA) plates. Sclerotinia sclerotiorum, Pythium aphanidermatum, Rhizoctonia solani, and Monilinia laxa mycelia were taken from 4- to 10-day-old shake flask cultures grown at room temperature on full strength potato dextrous broth (PDB). Cercospora arachidicola mycelia were taken from 10- to 14-day-old shake flask cultures grown at room temperature on a full strength PDB amended with peanut oil. Mycosphaerella fijiensis mycelia were taken from 10- to 14-day-old shake flask cultures grown at room temperature on V8 juice broth. Sclerotinia sclerotiorum, Pythium aphanidermatum, Rhizoctonia solani, Cercospora arachidicola, and Mycosphaerella fijiensis mycelia (0.4 g mycelia) were blended for 45 seconds in 20 mL sterile de-ionized water. Monilinia laxa mycelia (1 g mycelia) was blended for 45 seconds in 30 mL of sterile de-ionized water. Botrytis cinerea spores were diluted with quarter strength PDB to 1×10^5 spores/mL final well concentration. All mycelia were diluted in water (1:5 mycelia:water) before distributing into the wells. Microtiter plate preparation: Compound solution (10 :L), quarter strength PDB (900 :L) and fungi preparation (100 :L) were sequentially distributed into 48-well microtiter plates (n=3 replications/compound/rate). A blank consisted of quarter strength PDB and fungi preparation. Commercial fungicide controls (100 ppm diluted with water) consisted of Scala for Botrytis cinerea, Dithane F-45 for Mycosphaerella fijiensis, and Benlate for Sclerotinia sclerotiorum, Pythium aphanidermatum, Rhizoctonia solani, Cercospora arachidicola, and Monilinia laxa. Plates were shaken in a circular rotator at room temperature for 20 minutes, then incubated at 25C for 24 to 72 hours, depending on the pathogen. Fungal control ratings: Fungal growth in wells containing the compounds were compared to the positive control and fungal inhibition was rated as full, partial, or none. Final readings were the average of the three wells (Table 1).

[2] = test system: Cercospora arachidicola; test: Contact evaluation (microtiter plate); assay type: cell-based
Protocol: as §1

[3] = test system: Monilinia laxa; test: Contact evaluation (microtiter plate); assay type: cell-based
Protocol: as §1

[4] = test system: Mycosphaerella fijiensis; test: Contact evaluation (microtiter plate); assay type: cell-based
Protocol: as §1

[5] = test system: Pythium aphanidermatum; test: Contact evaluation (microtiter plate); assay type: cell-based
Protocol: as §1

[6] = test system: Rhizoctonia solani; test: Contact evaluation (microtiter plate); assay type: cell-based; settings: Rhizoctinia solani
Protocol: as §1

[7] = test system: Sclerotinia sclerotiorum; test: Contact evaluation (microtiter plate); assay type: cell-based; settings: Sclerotinia sclerotionum
Protocol: as §1

[8] = test system: Botrytis cinerea; test: Detached bean leaf bioassay, fungal control; assay type: in vivo; settings: 200 ppm, three days after inoculation, 100 minus percent necrotic area
Protocol: Compound solution: Compound solutions were prepared by diluting compound stock solutions (1.0% w/v compound in DMSO) to 200 ppm with 0.01% w/v Triton X-100. Spore solution preparation: Botrytis cinerea spores were taken from 6-week-old cultures grown at 22C on full strength potato dextrous agar (PDA) plates and harvested in 1:16 frozen orange juice concentrate:water. Botrytis cinerea spore solutions were prepared by diluting spore cultures to 5×10^4 spores/mL with 1:16 frozen orange juice concentrate:water. Plant material: Middle trifoliate leaves of greenhouse grown Phaseolus vulgaris (Bush bean cv. Blue Lake 274) were excised and placed on a plastic grid above a tray containing moist towels. Treatment method: One half of the adaxial surface of the leaf was treated with the compound solution (100 :L) using a 3 cm Bacti Cell Spreader. A blank consisted of 0.01% w/v Triton X-100. A commercial fungicide control (200 ppm diluted with water) consisted of Scala. […] Fungal control rating: Three days after inoculation with Botrytis, the percent necrotic area under the inoculation droplet was determined. Since the areas under the blank (0.01% w/v Triton X-100) were 100% infected, fungal control was expressed as 100 minus the percent necrotic area, and thus 0% infected is 100% fungal control (n=3 leaves/compound, 5 inoculation droplets/leaf, Table 2).

[9] = test system: Phaseolus vulgaris (Bush bean cv. Blue Lake 274) leaves; test: Detached bean leaf bioassay, phytotoxicity rating; assay type: in vivo; settings: 200 ppm, scale 0=no, 1=slight, 2=moderate, 3=excessive phytotoxicity
Protocol: Compound solution: Compound solutions were prepared by diluting compound stock solutions (1.0% w/v compound in DMSO) to 200 ppm with 0.01% w/v Triton X-100. Plant material: Middle trifoliate leaves of greenhouse grown Phaseolus vulgaris (Bush bean cv. Blue Lake 274) were excised and placed on a plastic grid above a tray containing moist towels. Treatment method: One half of the adaxial surface of the leaf was treated with the compound solution (100 :L) using a 3 cm Bacti Cell Spreader. A blank consisted of 0.01% w/v Triton X-100. A commercial fungicide control (200 ppm diluted with water) consisted of Scala. After the solutions dried, the trays containing the leaves were covered and held one day in a growth chamber (22C). The adaxial surfaces of the leaves were then inoculated with 5–60 :L droplets of Botrytis cinerea spore solution. Phytotoxicity ratings: Phytotoxicity was rated as 0=no phytotoxicity, 1=slight phytotoxicity, 2=moderate phytotoxicity, or 3=excessive phytotoxicity (Table 2).

With `OCCc1c(Br)cc(Br)c2cccnc12` [Example 1, 5,7-dibromo-8-(2-hydroxyethyl)quinoline] the “Control of fungi (full, partial, none)” value ([1]; fungicide rate 2 ppm) was “Partial”, the “Control of fungi (full, partial, none)” value ([1]; fungicide rate 10 ppm) was “Full” and the “Control of fungi (full, partial, none)” value ([1]; fungicide rate 20 ppm) was “Full”. The “Control of fungi (full, partial, none)” value ([2]; fungicide rate 2 ppm) was “None”, the “Control of fungi (full, partial, none)” value ([2]; fungicide rate 10 ppm) was “Full” and the “Control of fungi (full, partial, none)” value ([2]; fungicide rate 20 ppm) was “Full”. For the same compound, the “Control of fungi (full, partial, none)” value ([3]; fungicide rate 2 ppm) was “Full”, the “Control of fungi (full, partial, none)” value ([3]; fungicide rate 10 ppm) was “Full” and the “Control of fungi (full, partial, none)” value ([3]; fungicide rate 20 ppm) was “Full”. The “Control of fungi (full, partial, none)” value ([4]; fungicide rate 2 ppm) was “Full”, the “Control of fungi (full, partial, none)” value ([4]; fungicide rate 10 ppm) was “Full” and the “Control of fungi (full, partial, none)” value ([4]; fungicide rate 20 ppm) was “Full”. For the same compound, the “Control of fungi (full, partial, none)” value ([5]; fungicide rate 2 ppm) was “Full”, the “Control of fungi (full, partial, none)” value ([5]; fungicide rate 10 ppm) was “Full” and the “Control of fungi (full, partial, none)” value ([5]; fungicide rate 20 ppm) was “Full”. The “Control of fungi (full, partial, none)” value ([6]; fungicide rate 2 ppm) was “Full”, the “Control of fungi (full, partial, none)” value ([6]; fungicide rate 10 ppm) was “Full” and the “Control of fungi (full, partial, none)” value ([6]; fungicide rate 20 ppm) was “Full”. The “Control of fungi (full, partial, none)” value ([7]; fungicide rate 2 ppm) was “Full”, the “Control of fungi (full, partial, none)” value ([7]; fungicide rate 10 ppm) was “Full” and the “Control of fungi (full, partial, none)” value ([7]; fungicide rate 20 ppm) was “Full”. The Botrytis cinerea control [8] was 100%, the Phytotoxity [9] was “Slight” and the melting point was 128 to 131 °C.
